Where two headings read alike, the source gives them in different places.

The values that follow come from article PMC11547703, “Design, Synthesis, and Evaluation of Doxifluridine Derivatives as Nitroreductase-Responsive Anticancer Prodrugs” (Molecules, 2024).

The nature of data set [1]: Stability of target compounds in phosphate-buffered saline (pH 6.5 and pH 7.4), HPLC. It is filed as physicochemical. The note with it: PBS pH 6.5 and 7.4, mouse and rat plasma (Figure S1). The procedure: (§1) The stability of the target compounds was tested first, and excellent stability was essential for physiological function evaluation. Phosphate-buffered saline (PBS) of different pH values was used to evaluate the stability of the target compounds in a weakly acidic tumor microenvironment (pH 6.5) versus a weakly alkaline normal physiological environment (pH 7.4). […] The stability of the target compounds in mouse and rat plasma was excellent. The concentrations of all target compounds remained at >80% of the initial concentrations after 24 h, with the concentrations of compounds 1c, 2c, and 3c being 89%, 88%, and 83% in mouse plasma and 86%, 84%, and 81% in rat plasma, respectively (Figure 3c,d).
(§2) PBS (pH 7.4) was made with 137 mM NaCl, 2.7 mM KCl, 10 mM Na2HPO4, and 1.8 mM KH2PO4, while PBS (pH 6.5) was made with 24.6 mM Na2HPO4 and 175.4 mM NaH2PO4. The target compounds were dissolved into the different buffers (50 μM; 1% DMSO), and the mixtures were incubated at 37 °C. A 100-μL sample was transferred to a vial for HPLC analysis at 1, 2, 4, 8, 12, and 24 h. C57BL/6 mice and SD rat orbital whole blood was collected into anticoagulation tubes and centrifuged at 4000× g for 5 min at 4 °C to obtain plasma. The target compounds were dissolved into the plasma (50 μM; 1% DMSO) and incubated at 37 °C. Each sample (100 μL) was collected and precipitated using 100 μL of acetonitrile. The mixture was vortexed for 5 min and centrifuged at 10,000× g for 10 min. The supernatant was transferred to a vial for HPLC analysis after 1, 2, 4, 8, 12, and 24 h.

In data set [2] the target is T1, NTR extracted from Escherichia coli (Escherichia coli, UniProt P38489).
T1 construct: host or cells: Escherichia coli
Nature of the data set: In vitro release evaluation: incubation with NTR and NADH, HPLC of derivative and released 5′-DFUR. The note with it: NTR 50 µg/mL, NADH 2 mM, PBS pH 7.4, 37 °C; for time after which compound was completely degraded by NTR / 5′-DFUR released: 50 µM compound; for 5′-DFUR released: at complete degradation. Format: biochemical. The method, then: (§3) NTR levels are reportedly much higher in hypoxic tumors than in normal tissues. To investigate the mechanism of activation of the derivatives and the amount of 5′-DFUR released, we treated the target compounds with NTR extracted from Escherichia coli to determine whether they provided the desired active agent as expected. The test compounds (50 µM, 1% dimethyl sulfoxide [DMSO]) were dissolved in PBS buffer at pH 7.4 and incubated with NTR (50 µg/mL) and NADH (2 mM) at 37 °C, and the concentrations of the derivatives and 5′-DFUR during the bioreduction were detected by high-performance liquid chromatography (HPLC). The designed target compounds 1c–3c could be metabolized to form 5′-DFUR in the presence of NTR, while the nitro-free compounds 4c–6c could not be metabolized to form 5′-DFUR. […] The metabolic rate of compound 2c was the highest, with a half-life of 0.6 h. It was completely degraded after 4 h, and 69.6% of 5′-DFUR was released. […] During the experiment, other metabolites, such as hydroxylamine derivatives and amino derivatives generated by reducing the nitro group were also detected. […] Compounds 4c, 5c and 6c, without nitro groups, remained well-stabilized under NTR conditions, with concentrations > 90% after 12 h.
(§4) The target compounds NTR and NADH were dissolved in 10 mM PBS (pH 7.4; 1% DMSO). The final concentrations of the target compounds NTR and NADH in the mixtures were 50 μM, 50 μg/mL, and 2 mM, respectively. The mixture were incubated at 37 °C. The sample (100 μL) was collected and quenched by 100 µL of cold methanol. The mixture was vortexed for 5 min and centrifuged at 10,000× g for 10 min. The supernatant was transferred to a vial for HPLC analysis at 0.25, 0.5, 1, 2, 4, 8, and 12 h.

The test system of data set [3] is MCF-7 human breast cancer cells. The experiment in a line: In vitro cytotoxicity (MTT assay) in MCF-7 cells with or without NTR. Format: cell-based. Conditions: for IC50: Homo sapiens, MCF7, MCF-7, 24 h, MTT; for IC50 (NTR-Free)/ IC50 (NTR): MCF-7, selectivity ratio. The procedure: (§5) The cytotoxicity of the target compounds 1c–6c were evaluated in MCF-7 human breast cancer cells and HT29 human colon cancer cells. These two cell lines were chosen because 5′-DFUR is currently used to treat breast and gastrointestinal tumors. The cells were incubated with the target compounds at various concentrations for 24 h in the presence or absence of NTR. The cell viability and proliferation behavior were assessed by 3-(4,5-dimethylthiazol-2-yl)-2,5-diphenyltetrazolium (MTT) assay. The half-maximal inhibitory concentration values of the tested compounds for inhibiting cell proliferation are shown in Table 1.
(§6) MCF-7 human breast cancer cells or HT29 human colon cancer cells purchased from the National Collection of Authenticated Cell Cultures were cultured in RPMI 1640 medium, and McCoy’s 5A medium supplemented with 10% fetal bovine serum and 1% penicillin-streptomycin in a humidified 5% CO2 incubator at 37 °C. Cells in the logarithmic growth phase were inoculated into 96-well plates at a density of 1.0 × 10^4 cells per well and cultured for 24 h. The target compounds were dissolved in DMSO and diluted in medium to different concentrations. The cells were then incubated with different concentrations of the target compound for 24 h. The cells in the NTR treatment group were incubated with various concentrations of compounds, NTR (final concentration, 50 µg/mL) and NADH (final concentration, 2 mM) for 24 h. Cell viability and proliferation were measured by MTT assay. Cell viability was calculated according to the following formula: cell viability (%) = (OD value of treatment group–OD value of blank group)/(OD value of control group–OD value of blank group) × 100. The half-maximal inhibitory concentration values were calculated from concentration-response curves using GraphPad PRISM (version 5.0, GraphPad, San Diego, CA, USA).
On the technique in general: Formazan colour is commonly taken as a measure of viable cells.

The subject of data set [4] is HT29 human colon cancer cells. Nature of the data set: In vitro cytotoxicity (MTT assay) in HT29 cells with or without NTR. Format: cell-based. Conditions: for IC50 (NTR-Free)/ IC50 (NTR): HT29, selectivity ratio; for IC50: Homo sapiens, HT-29, HT29, 24 h, MTT. The method, then:
as §5, §6

The nature of data set [5]: Stability of target compounds in mouse plasma, HPLC. Format: in vitro ADME, C57BL/6 mice. The note with it: 50 μM, 37 °C. The method, then:
as §1, §2

Data set [6] is described as follows: Stability of target compounds in rat plasma, HPLC. It is filed as in vitro ADME, SD rat. Conditions: 50 μM, 37 °C. The procedure: as §1, §2
Data set [7] has as its target T2, NTR (Escherichia coli, UniProt P38489).
T2 construct: host or cells: Escherichia coli
The experiment in a line: In vitro release evaluation: incubation with NTR and NADH, HPLC of derivative and released 5′-DFUR. Format: biochemical. The note with it: Escherichia coli; 50 µM compound, NTR 50 µg/mL, NADH 2 mM, PBS pH 7.4, 37 °C; read-out: half-life in the presence of NTR (converted). The procedure:
as §3, §4

The test system of data set [8] is HT29 colon cancer cells. The experiment in a line: In vivo antitumor activity in HT29 tumor-bearing mice. The note with it: 50 mg/kg intraperitoneally every 2 days for 4 weeks, HT29 tumor-bearing C57BL/6 mice. The procedure:
Compound 2c, which has excellent stability, a high metabolic rate, and strong cytotoxicity under NTR conditions in vitro, was selected for the in vivo evaluation of antitumor activity in tumor-bearing mice. Tumor-bearing mice were generated by the axillary injection of HT29 colon cancer cells into C57BL/6 mice. When the tumors grew to approximately 100–150 mm^3, the mice were randomly divided into negative control (vehicle), compound 2c (50 mg/kg), and positive control 5′-DFUR (50 mg/kg) groups (n = 6 each). The mice were injected intraperitoneally every 2 days for 4 weeks, and the tumor volume and body weight of the mice were measured every 2 days. No death occurred in any group of mice during the experimental period.
Four-week-old C57BL/6 mice were purchased from Jinan Pengyue Experimental Animal Breeding Co. Ltd. (Jinan, China). The mice were housed in cages under a 12-h light/dark cycle from 7:00 to 19:00 at controlled temperatures (25–26 °C) and relative humidity (50 ± 10%) throughout the experimental period. All animals were allowed to eat and drink freely unless otherwise stated and allowed to acclimate for 1 week before the experiment. All animal experimental protocols were performed in accordance with applicable institutional and governmental regulations concerning the ethical use of animals (AP2024022954).
The tumor-bearing mice model was established by the subcutaneous injection of HT29 cells (1 × 10^7 cells/mL) purchased from the National Collection of Authenticated Cell Cultures to the right axilla of C57BL/6 mice (100 µL/mouse). When the tumor size reached 100–150 mm^3, the mice were evenly divided into negative control (vehicle), group 2c (50 mg/kg), and 5′-DFUR (50 mg/kg) groups (n = 6 each). Compound 2c and 5′-DFUR were dissolved in a solution containing 10% ethanol, 10% castor oil, and 80% saline that also served as the negative control. The mice were injected intraperitoneally every 2 days for 4 weeks, and the tumor volumes and body weights of the mice were measured every 2 days. Tumor volume was calculated using the following formula: tumor volume = length (mm) × width (mm) × width (mm) × 0.5. The TGI rate was determined as follows: TGI = 1 − (treatment final volume − treatment initial volume)/(control final volume − control initial volume) × 100%.

Where [9] appears, read: medium with NTR and NADH 2 mM, read-out: IC50 NTR.
Where [10] appears, read: medium without NTR, read-out: IC50 NTR-Free.

T1 sequence (P38489 whole entry): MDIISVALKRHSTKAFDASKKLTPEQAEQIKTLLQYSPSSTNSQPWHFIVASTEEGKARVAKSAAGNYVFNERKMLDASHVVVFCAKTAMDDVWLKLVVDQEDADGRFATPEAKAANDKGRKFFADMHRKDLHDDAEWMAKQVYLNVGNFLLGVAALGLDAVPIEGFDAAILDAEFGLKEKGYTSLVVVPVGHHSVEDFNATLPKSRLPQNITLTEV
T2 sequence (P38489 whole entry): as above

In the case of `C[C@H]1O[C@@H](n2cc(F)c(=O)n(Cc3ccccc3)c2=O)[C@H](O)[C@@H]1O` [Compound 4c], the “stability in PBS at different pH values and plasma (in words)” value in data set [1] was “similarly stable”. Besides, the “concentration remaining under NTR conditions after 12 h” value (“concentration remaining” below) in data set [2] is greater than 90%. Also, the IC50 stood at 537 µM in data set [3] (setting [9]), 495 µM in data set [3] (setting [10]), 614 µM in data set [4] (setting [9]) and 621 µM in data set [4] (setting [10]). Besides, the “IC50 (NTR-Free)/ IC50 (NTR)” value in data set [3] came out at 0.92; in data set [4], 1.01.

As to `C[C@H]1O[C@@H](n2cc(F)c(=O)n(Cc3cccs3)c2=O)[C@H](O)[C@@H]1O` [Compound 6c], the “stability in PBS at different pH values and plasma (in words)” value in data set [1] is on record as “similarly stable”. Further, the “concentration remaining” value in data set [2] is given as greater than 90%. In addition, the IC50 in data set [3] (setting [9]) worked out at 473 µM; in data set [3] (setting [10]), 468 µM; in data set [4] (setting [9]), 465 µM; in data set [4] (setting [10]) it was 474 µM. The “IC50 (NTR-Free)/ IC50 (NTR)” value in data set [3] stood at 0.99; in data set [4], 1.02.

Consider `C[C@H]1O[C@@H](n2cc(F)c(=O)n(Cc3ccco3)c2=O)[C@H](O)[C@@H]1O` [Compound 5c], for which, in data set [1], the “stability in PBS at different pH values and plasma (in words)” value is “similarly stable”. Besides, the “concentration remaining” value in data set [2] is greater than 90%. For the same molecule, the IC50 in data set [3] (setting [9]) stood at 423 µM; in data set [3] (setting [10]) it was 412 µM; in data set [4] (setting [9]), 422 µM; in data set [4] (setting [10]) it was 459 µM. For the same molecule, the “IC50 (NTR-Free)/ IC50 (NTR)” value in data set [3] is 0.97; in data set [4], 1.09.

Regarding `C[C@H]1O[C@@H](n2cc(F)c(=O)n(Cc3ccc([N+](=O)[O-])cc3)c2=O)[C@H](O)[C@@H]1O` [Compound 1c], in data set [5], the “concentration relative to initial concentration after 24 h in mouse plasma” value turned out to be 89%. In addition, the “concentration relative to initial concentration after 24 h in rat plasma” value in data set [6] was found to be 86%. The half-life at 50 µM in data set [7] was 1.3 h. In data set [2], the “time after which compound was completely degraded by NTR” value was found to be 12 h. Also, the “5′-DFUR released” value in data set [2] worked out at 45.1%. Further, the IC50 was 106 µM in data set [3] (setting [9]), 470 µM in data set [3] (setting [10]), 79 µM in data set [4] (setting [9]) and 584 µM in data set [4] (setting [10]). The “IC50 (NTR-Free)/ IC50 (NTR)” value amounted to 4.42 in data set [3] and 7.39 in data set [4].

Take `C[C@H]1O[C@@H](n2cc(F)c(=O)n(Cc3ccc([N+](=O)[O-])s3)c2=O)[C@H](O)[C@@H]1O` [Compound 3c]: the “concentration relative to initial concentration after 24 h in mouse plasma” value in data set [5] came to 83%. Further, the “concentration relative to initial concentration after 24 h in rat plasma” value in data set [6] was found to be 81%. In addition, in data set [7], the half-life at 50 µM was 1 h. For the same molecule, in data set [2], the “time after which compound was completely degraded by NTR” value is on record as 8 h. In data set [2], the “5′-DFUR released” value amounted to 55.6%. Moreover, the IC50 in data set [3] (setting [9]) is 96.4 µM; in data set [3] (setting [10]), 435 µM; in data set [4] (setting [9]) it was 63.3 µM; in data set [4] (setting [10]), 457 µM. Moreover, the entries for the “IC50 (NTR-Free)/ IC50 (NTR)” value in data set [3] and in data set [4] were 4.52 and 7.22, respectively.

As for `C[C@H]1O[C@@H](n2cc(F)c(=O)[nH]c2=O)[C@H](O)[C@@H]1O` [5′-DFUR, 5′-deoxy-5-fluorouridine, reference compound], the IC50 came to 86.7 µM in data set [3] (setting [9]), 83.6 µM in data set [3] (setting [10]), 48.1 µM in data set [4] (setting [9]) and 50.4 µM in data set [4] (setting [10]). For the same molecule, the “IC50 (NTR-Free)/ IC50 (NTR)” value in data set [3] was 0.96; in data set [4], 1.05. In addition, the “tumor growth inhibition (TGI) rate” value in data set [8] is listed as 83.0%.

What is called IC50 is the concentration that gives 50% inhibition. One may read the half-life as the time in which the quantity being followed falls by half.
